From patent US20050084916A1, “Identification of the IkappaBNS protein and its products” (priority 2001, published 2005)

Columns and labels:
IκBNS mRNA = assay type: cell-based, mouse
[1] = test system: thymocytes in N15tg RAG-2−/− H-2b FTOC; conditions: cited from earlier work
NF-κB [2] = test: NF-κB luciferase reporter assay in transfected Cos-7 cells; assay type: cell-based
NF-κB [3] = test: NF-κB-sensitive reporter constructs in transiently transfected Jurkat T cells; assay type: cell-based

CC(C)C[C@H](N)C(=O)O [L4]
IκBNS mRNA induction (IκBNS mRNA): do not upregulate | thymic selection outcome [1]: positive selection

CCCCCCCCCCCCCC(=O)O[C@@H]1[C@@H](C)[C@@]2(O)[C@@H](C=C(CO)C[C@]3(O)C(=O)C(C)=C[C@@H]23)[C@@H]2C(C)(C)[C@]12OC(C)=O [PMA, phorbol-12-myristate-13-acetate]
increase in NF-κB luciferase activity relative to untreated cells (NF-κB [2]; 50 ng/ml for 7 h): 5-10 fold

B1: IκBNS: novel 327 amino acid IκB family protein with 7 ankyrin domains (SEQ ID NO: 4); expressed from Flag-tagged pcDNA3.1 construct (protein)
chain: MEDSLDTRLYPEPSLSQVGSWRVSSLPSGSPQLPSPTGPSLETARAHILALGPQQLLAQMEDDTYSLQGWRVSPSGPQPGPSLEARAHLALGPQQLLAQDEEGDTLLHLFAARGLRWAAYAAAEVLQMYRQLDIREHKGKTPLLVAAAANQPLIVEDLLDEEGDTLLHLFAARGLRWAAYAAAEVLQYRLDIREHKGKTPLLVAAAANQPLIVEDLLSLGAEPNATDHQGRSVLHVAATYGLPGVLSAVFKSGIQVDLEARDFEGLTPLHTAVLALNLGAEPNADHQGRSVLHVAATYGLPGVLAVSGQVDLEARDFEGLTPLHTALALNAAMLPASVCPRMQNSQARDRLTCVQMLLQMGASHTSQEIKSNKTILHLAVQAANPTLVQLAMPCPRQARDRLCVMLLQMGAHTSQEIKSNKTLHLAVQAANPTLVQLLLGLPRGDLRAFVNMKAHGNTALHMAAALPPGPPQEAIVRHLLAAGADPTLRNLENEQPVLLLPRGDLRFVNMKAHGNTALHMAAALPPGPQEAIVRHLLAAGADPTLRNLEGEQPVHLLRPGGPEGLRQLLKRSRTAPPGLSSHLLRPGGPEGLRQLLKRSRAPPGLSS
modifications: Flag tag; mouse
notes: expressed from Flag-tagged pcDNA3.1 construct
activity of NF-κB-sensitive reporter constructs (NF-κB [3]): reduced the activity | effect of cotransfection on PMA-induced NF-κB-driven luciferase activity (NF-κB [2]; 10 μg construct, PMA 50 ng/ml 7 h): reduced NF-κB-driven luciferase activity to a level approaching that of cells transfected with the vector only
